Data as given in US20110224210A1, “NOVEL BIS-AMIDES AS ANTI-MALARIAL AGENTS” (priority 2008, published 2011).

What follows are compounds tested on P. falciparum K1 (strain resistant to chloroquine and pyrimethamine), erythrocytic stages (assay: Plasmodium falciparum in vitro assay, [3H] hypoxanthine incorporation). Conditions: Plasmodium falciparum, K1, P. falciparum strain K1; [3H] hypoxanthine incorporation; read-out: IC50 (nM) on K1.
Assay type: cell-based
Procedure: In Vitro Antimalarial Activity: Plasmodium falciparum In Vitro Assay
In vitro activity against erythrocytic stages of P. falciparum is determined using a [^3H] hypoxanthine incorporation assay. One strain resistant to chloroquine and pyrimethamine (P. falciparum K1) is used in the assays, and all test compounds are compared for activity with the standard drugs chloroquine (sigma C6628) and artemisinin (sigma-36, 159-3). Compounds are diluted in DMSO to 1 mM and added to parasite cultures incubated in RPMI 1640 medium without hypoxanthine, supplemented with HEPES (5.94 g/L), NaHCO3 (2.1 g/L), neomycin (100 U/mL), Albumax (5 g/L) and washed human red cells at 2.5% haematocrit (0.3% parasitaemia). Seven serial doubling dilutions of each compound are prepared in 96-well microtitre plates and incubated in a humidifying atmosphere at 37° C.; 4% CO2, 3% O2, 93% N2.
After 48 h, 50 μl of [3H] hypoxanthine (0.5 μCi) is added to each well of a plate. The plates are incubated for a further 24 h under the same conditions. The plates are then harvested with a Betaplate cell harvester (Wallac) and washed with distilled water. The dried filters are inserted into a plastic foil with 10 mL of scintillation fluid, and counted in a Betaplate liquid scintillation counter. IC50 values are calculated from sigmoidal inhibition curves using Microsoft Excel.

Row | Structure (SMILES) | IC50
1 | CN(CCN(C)C(=O)[C@H](Cc1ccccc1)N(Cc1ccc(N2CCOCC2)cc1)C(=O)C=Cc1ccc(C(F)(F)F)cc1)Cc1cnc[nH]1 [Example 269, (S)-N-[1-({2-[(3H-Imidazol-4-ylmethyl)-methyl-amino]-ethyl}-methyl-carbamoyl)-2-phenyl-ethyl]-N-(4-morpholin-4-yl-benzyl)-3-(4-trifluoromethyl-phenyl)-acrylamide] | 63 nM
2 | COCCN(C)C(=O)[C@H](Cc1ccccc1)N(Cc1ccc(N2CCN(C(C)=O)CC2)cc1)C(=O)C=Cc1ccc(OC)nn1 [Example 111, (S)-N-[4-(4-Acetyl-piperazin-1-yl)-benzyl]-N-{1-[(2-methoxy-ethyl)-methyl-carbamoyl]-2-phenyl-ethyl}-3-(6-methoxy-pyridazin-3-yl)-acrylamide] | 214 nM
3 | O=C(NC1CN2CCC1CC2)[C@H](Cc1ccccc1)N(Cc1ccc(-c2ccccn2)cc1)C(=O)C=Cc1ccc(C(F)(F)F)cc1 (mixture of isomers) [Example 152] | 242 nM
4 | CN(CCO)C(=O)[C@H](Cc1ccccc1)N(Cc1ccc(N2CCOCC2)cc1)C(=O)C=Cc1ccc(C(F)(F)F)cc1 [Example 175, (S)-N-{1-[(2-Hydroxy-ethyl)-methyl-carbamoyl]-2-phenyl-ethyl}-N-(4-morpholin-4-yl-benzyl)-3-(4-trifluoromethyl-phenyl)-acrylamide] | 88 nM
5 | CN(C)C1CCN(C(=O)C(Cc2ccn(C)n2)N(Cc2ccc(-c3ccccn3)cc2)C(=O)C=Cc2ccc(C(F)(F)F)cc2)CC1 (racemic) [Example 138] | 340 nM
6 | CC(=O)N1CCN(c2ccc(CN(C(=O)C=Cc3ccc(C(F)(F)F)cc3)[C@@H](Cc3ccccc3)C(=O)N(C)CCN(C)Cc3cnc[nH]3)cc2)CC1 [Example 252, (S)-N-[4-(4-Acetyl-piperazin-1-yl)-benzyl]-N-[1-({2-[(3H-imidazol-4-ylmethyl)-methyl-amino]-ethyl}-methyl-carbamoyl)-2-phenyl-ethyl]-3-(4-trifluoromethyl-phenyl)-acrylamide] | 80 nM
7 | COc1cc(COCCN(C)C(=O)[C@H](Cc2ccccc2)N(Cc2ccc(N3CCOCC3)cc2)C(=O)C=Cc2ccc(C(F)(F)F)cc2)cc(OC)c1 [Example 199, (S)-N-(1-{[2-(3,5-Dimethoxy-benzyloxy)-ethyl]-methyl-carbamoyl}-2-phenyl-ethyl)-N-(4-morpholin-4-yl-benzyl)-3-(4-trifluoromethyl-phenyl)-acrylamide] | 34 nM
8 | CC(=O)N(c1ccccc1)c1ccc(CN(C)C(=O)[C@H](Cc2ccccc2)N(Cc2ccc(N3CCOCC3)cc2)C(=O)C=Cc2ccc(C(F)(F)F)nc2)cc1 [Example 276] | 65 nM
9 | O=C([C@H](Cc1ccccc1)N(Cc1ccccc1)C(=O)C=Cc1ccc(C(F)(F)F)cc1)N1CCC(Cc2ccccc2)CC1 [Example 45, (S)-N-Benzyl-N-[1-benzyl-2-(4-benzyl-piperidin-1-yl)-2-oxo-ethyl]-3-(4-trifluoromethyl-phenyl)-acrylamide] | 4 nM
10 | COCCN(C)C(=O)C(CN1C(=O)C(=O)c2ccccc21)N(Cc1ccc(-c2ccncc2)cc1)C(=O)C=Cc1ccc(C(F)(F)F)cc1 (racemic) [Example 283] | 324 nM
11 | COCCN(C)C(=O)[C@H](Cc1ccccc1)N(Cc1ccc(-c2ccccn2)cc1)C(=O)C=Cc1csc(C)n1 [Example 78, (S)-N-{1-[(2-Methoxy-ethyl)-methyl-carbamoyl]-2-phenyl-ethyl}-3-(2-methyl-thiazol-4-yl)-N-(4-pyridin-2-yl-benzyl)-acrylamide] | 47 nM
12 | CC(=O)N1CCN(c2ccc(CN(C(=O)C=Cc3ccc(C(F)(F)F)cc3)[C@@H](Cc3ccccc3)C(=O)N(C)CCOCc3ccc(C)cc3C)cc2)CC1 [Example 183, (S)-N-[4-(4-Acetyl-piperazin-1-yl)-benzyl]-N-(1-{[2-(2,4-dimethyl-benzyloxy)-ethyl]-methyl-carbamoyl}-2-phenyl-ethyl)-3-(4-trifluoromethyl-phenyl)-acrylamide, formic acid] | 60 nM
13 | COCCN(C)C(=O)[C@H](Cc1ccccc1)N(Cc1ccc(-c2ccncc2)cc1)C(=O)C=Cc1ccn(C)n1 [Example 91, (S)-N-{1-[(2-Methoxy-ethyl)-methyl-carbamoyl]-2-phenyl-ethyl}-3-(1-methyl-1H-pyrazol-3-yl)-N-(4-pyridin-4-yl-benzyl)-acrylamide] | 26 nM
14 | COCCN(C)C(=O)[C@H](Cc1ccccc1)N(Cc1ccc(N2CCOCC2)cc1)C(=O)C=Cc1c(C)noc1C [Example 64, (S)-3-(3,5-Dimethyl-isoxazol-4-yl)-N-{1-[(2-methoxy-ethyl)-methyl-carbamoyl]-2-phenyl-ethyl}-N-(4-morpholin-4-yl-benzyl)-acrylamide] | 180 nM
15 | Cc1nc(C)c(C=CC(=O)N(Cc2ccc(-c3ccccn3)cc2)[C@@H](Cc2ccccc2)C(=O)N2CCC(N(C)C)CC2)s1 [Example 10, (S)-N-[1-Benzyl-2-(4-dimethylamino-piperidin-1-yl)-2-oxo-ethyl]-3-(2,4-dimethyl-thiazol-5-yl)-N-(4-pyridin-2-yl-benzyl)-acrylamide] | 176 nM
16 | CC(=O)N1CCN(c2ccc(CN(C(=O)C=Cc3ccc(C(F)(F)F)cn3)[C@@H](Cc3ccccc3)C(=O)N3CCC(N(C)C)CC3)cc2)CC1 [Example 35, (S)-N-[4-(4-Acetyl-piperazin-1-yl)-benzyl]-N-[1-benzyl-2-(4-dimethylamino-piperidin-1-yl)-2-oxo-ethyl]-3-(5-trifluoromethyl-pyridin-2-yl)-acrylamide] | 317 nM
17 | COCCN(C)C(=O)[C@H](Cc1ccccc1)N(Cc1ccc(N2CCOCC2)cc1)C(=O)C=Cc1ccc(C)cn1 [Example 68, (S)-N-{1-[(2-Methoxy-ethyl)-methyl-carbamoyl]-2-phenyl-ethyl}-3-(5-methyl-pyridin-2-yl)-N-(4-morpholin-4-yl-benzyl)-acrylamide] | 156 nM
18 | COc1ccc(COCCN(C)C(=O)[C@H](Cc2ccccc2)N(Cc2ccc(N3CCN(C(C)=O)CC3)cc2)C(=O)C=Cc2ccc(C(F)(F)F)cc2)cc1F [Example 184, (S)-N-[4-(4-Acetyl-piperazin-1-yl)-benzyl]-N-(1-{[2-(3-fluoro-4-methoxy-benzyloxy)-ethyl]-methyl-carbamoyl}-2-phenyl-ethyl)-3-(4-trifluoromethyl-phenyl)-acrylamide, formic acid] | 13 nM
19 | CN(C)C1CCN(C(=O)[C@H](Cc2ccccc2)N(Cc2ccc(-c3ccncc3)cc2)C(=O)C=Cc2ccn(C)n2)CC1 [Example 19, (S)-N-[1-Benzyl-2-(4-dimethylamino-piperidin-1-yl)-2-oxo-ethyl]-3-(1-methyl-1H-pyrazol-3-yl)-N-(4-pyridin-4-yl-benzyl)-acrylamide] | 250 nM
20 | CC(=O)N1CCN(c2ccc(CN(C(=O)C=Cc3ccc(C(F)(F)F)cc3)[C@@H](Cc3ccccc3)C(=O)N(C)CCN(C)Cc3cccc(OCCO)c3)cc2)CC1 [Example 242, (S)-N-[4-(4-Acetyl-piperazin-1-yl)-benzyl]-N-{1-[(2-{[3-(2-hydroxy-ethoxy)-benzyl]-methyl-amino}-ethyl)-methyl-carbamoyl]-2-phenyl-ethyl}-3-(4-trifluoromethyl-phenyl)-acrylamide] | 14 nM
